Assay results reported in ChEMBL document CHEMBL4507320, “Data for DCP probe NVS-MALT1” (2021).

Key:
[1] = biological target: Serine/threonine-protein kinase PAK 5 (Homo sapiens) (UniProt Q9P286); conditions: Compound concentration 1000.0 nM
[2] = biological target: Tyrosine-protein kinase ITK/TSK (Homo sapiens) (UniProt Q08881); conditions: Compound concentration 1000.0 nM
[3] = biological target: Tyrosine-protein kinase receptor TYRO3 (Homo sapiens) (UniProt Q06418); conditions: Compound concentration 1000.0 nM
[4] = biological target: G protein-coupled receptor kinase 3 (Homo sapiens) (UniProt P35626); conditions: Compound concentration 1000.0 nM
[5] = biological target: Serine/threonine-protein kinase 36 (Homo sapiens) (UniProt Q9NRP7); conditions: Compound concentration 1000.0 nM
[6] = biological target: Mitogen-activated protein kinase kinase kinase 5 (Homo sapiens) (UniProt Q99683); conditions: Compound concentration 1000.0 nM
[7] = biological target: Dual serine/threonine and tyrosine protein kinase (Homo sapiens) (UniProt Q6XUX3); conditions: Compound concentration 1000.0 nM
[8] = biological target: Inhibitor of nuclear factor kappa-B kinase subunit beta (Homo sapiens) (UniProt O14920); conditions: Compound concentration 1000.0 nM
[9] = biological target: Serine/threonine-protein kinase tousled-like 1 (Homo sapiens) (UniProt Q9UKI8); conditions: Compound concentration 1000.0 nM
[10] = biological target: Serine/threonine-protein kinase 24 (Homo sapiens) (UniProt Q9Y6E0); conditions: Compound concentration 1000.0 nM
[11] = biological target: Serine/threonine-protein kinase MRCK gamma (Homo sapiens) (UniProt Q6DT37); conditions: Compound concentration 1000.0 nM
[12] = biological target: LIM domain kinase 2 (Homo sapiens) (UniProt P53671); conditions: Compound concentration 1000.0 nM
[13] = biological target: Tyrosine-protein kinase ABL2 (Homo sapiens) (UniProt P42684); conditions: Compound concentration 1000.0 nM
[14] = biological target: Fibroblast growth factor receptor 1 (Homo sapiens) (UniProt P11362); conditions: Compound concentration 1000.0 nM
[15] = biological target: Mitogen-activated protein kinase 1 (Homo sapiens) (UniProt P28482); conditions: Compound concentration 1000.0 nM
[16] = biological target: Cyclin-dependent kinase 7 (Homo sapiens) (UniProt P50613); conditions: Compound concentration 1000.0 nM
[17] = biological target: Tyrosine-protein kinase Fes/Fps (Homo sapiens) (UniProt P07332); conditions: Compound concentration 1000.0 nM
[18] = biological target: Serine/threonine-protein kinase Nek1 (Homo sapiens) (UniProt Q96PY6); conditions: Compound concentration 1000.0 nM
[19] = biological target: Bone morphogenetic protein receptor type-2 (Homo sapiens) (UniProt Q13873); conditions: Compound concentration 1000.0 nM
[20] = biological target: cAMP-dependent protein kinase catalytic subunit beta (Homo sapiens) (UniProt P22694); conditions: Compound concentration 1000.0 nM
[21] = biological target: Serine/threonine-protein kinase DCLK3 (Homo sapiens) (UniProt Q9C098); conditions: Compound concentration 1000.0 nM
[22] = biological target: Mitogen-activated protein kinase kinase kinase 6 (Homo sapiens) (UniProt O95382); conditions: Compound concentration 1000.0 nM
[23] = tested on: ALK tyrosine kinase receptor (Homo sapiens), Q9UM73 [L1196M]; conditions: Compound concentration 1000.0 nM
[24] = biological target: Tyrosine-protein kinase ZAP-70 (Homo sapiens) (UniProt P43403); conditions: Compound concentration 1000.0 nM
[25] = biological target: MAP/microtubule affinity-regulating kinase 4 (Homo sapiens) (UniProt Q96L34); conditions: Compound concentration 1000.0 nM
[26] = biological target: Serine/threonine-protein kinase BRSK2 (Homo sapiens) (UniProt Q8IWQ3); conditions: Compound concentration 1000.0 nM
[27] = tested on: Tyrosine-protein kinase ABL1 (Homo sapiens), P00519 [Q252H]; conditions: Compound concentration 1000.0 nM
[28] = biological target: Serine/threonine-protein kinase MARK1 (Homo sapiens) (UniProt Q9P0L2); conditions: Compound concentration 1000.0 nM
[29] = biological target: Serine/threonine-protein kinase OSR1 (Homo sapiens) (UniProt O95747); conditions: Compound concentration 1000.0 nM
[30] = biological target: Sigma non-opioid intracellular receptor 1 (Homo sapiens, UniProt Q99720); conditions: Compound concentration 10.0 uM
[31] = tested on: Epidermal growth factor receptor (Homo sapiens), P00533 [UNDEFINED MUTATION]; conditions: Compound concentration 1000.0 nM
[32] = biological target: Cyclin-dependent kinase 3 (Homo sapiens) (UniProt Q00526); conditions: Compound concentration 1000.0 nM
[33] = biological target: Serine/threonine-protein kinase 35 (Homo sapiens) (UniProt Q8TDR2); conditions: Compound concentration 1000.0 nM
[34] = biological target: Serine/threonine-protein kinase ICK (Homo sapiens) (UniProt Q9UPZ9); conditions: Compound concentration 1000.0 nM
[35] = tested on: Receptor-type tyrosine-protein kinase FLT3 (Homo sapiens), P36888 [D835H]; conditions: Compound concentration 1000.0 nM
[36] = biological target: Protein kinase C iota type (Homo sapiens) (UniProt P41743); conditions: Compound concentration 1000.0 nM
[37] = biological target: Myosin-IIIb (Homo sapiens) (UniProt Q8WXR4); conditions: Compound concentration 1000.0 nM
[38] = biological target: Casein kinase II subunit alpha (Homo sapiens) (UniProt P68400); conditions: Compound concentration 1000.0 nM
[39] = biological target: Cyclin-dependent kinase-like 3 (Homo sapiens) (UniProt Q8IVW4); conditions: Compound concentration 1000.0 nM
[40] = biological target: Histamine H2 receptor (Homo sapiens) (UniProt P25021); conditions: Compound concentration 10.0 uM
[41] = biological target: Serine/threonine-protein kinase PLK2 (Homo sapiens) (UniProt Q9NYY3); conditions: Compound concentration 1000.0 nM
[42] = biological target: TRAF2 and NCK-interacting protein kinase (Homo sapiens) (UniProt Q9UKE5); conditions: Compound concentration 1000.0 nM
[43] = biological target: 5'-AMP-activated protein kinase catalytic subunit alpha-2 (Homo sapiens) (UniProt P54646); conditions: Compound concentration 1000.0 nM
[44] = biological target: Calcium/calmodulin-dependent protein kinase kinase 2 (Homo sapiens) (UniProt Q96RR4); conditions: Compound concentration 1000.0 nM
[45] = biological target: Tyrosine-protein kinase JAK2 (Homo sapiens) (UniProt O60674); conditions: Compound concentration 1000.0 nM

Sequence of Serine/threonine-protein kinase 24 (Homo sapiens) (Q9Y6E0 whole entry, looked up): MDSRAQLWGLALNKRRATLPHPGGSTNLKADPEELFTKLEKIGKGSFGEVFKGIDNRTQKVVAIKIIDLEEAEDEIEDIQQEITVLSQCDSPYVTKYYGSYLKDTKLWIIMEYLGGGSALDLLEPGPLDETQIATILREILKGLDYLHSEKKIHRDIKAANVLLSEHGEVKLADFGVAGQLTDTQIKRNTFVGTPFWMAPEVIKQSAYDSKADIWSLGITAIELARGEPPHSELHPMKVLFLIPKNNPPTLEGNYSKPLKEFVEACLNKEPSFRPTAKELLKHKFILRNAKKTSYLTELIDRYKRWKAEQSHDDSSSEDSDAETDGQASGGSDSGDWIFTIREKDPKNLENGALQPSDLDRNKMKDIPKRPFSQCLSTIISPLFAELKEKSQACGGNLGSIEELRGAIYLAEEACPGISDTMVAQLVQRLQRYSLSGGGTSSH
Sequence of Histamine H2 receptor (Homo sapiens) (P25021 whole entry): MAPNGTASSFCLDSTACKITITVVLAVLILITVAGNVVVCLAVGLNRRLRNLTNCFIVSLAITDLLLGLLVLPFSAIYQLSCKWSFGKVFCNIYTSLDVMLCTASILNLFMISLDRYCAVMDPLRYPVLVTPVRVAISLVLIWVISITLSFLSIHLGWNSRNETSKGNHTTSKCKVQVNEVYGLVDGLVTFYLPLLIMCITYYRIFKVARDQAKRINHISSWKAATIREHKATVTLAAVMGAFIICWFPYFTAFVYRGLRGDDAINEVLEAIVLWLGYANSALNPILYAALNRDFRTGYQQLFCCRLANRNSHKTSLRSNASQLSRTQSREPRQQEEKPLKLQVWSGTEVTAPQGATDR
Sequence of G protein-coupled receptor kinase 3 (Homo sapiens) (P35626 whole entry): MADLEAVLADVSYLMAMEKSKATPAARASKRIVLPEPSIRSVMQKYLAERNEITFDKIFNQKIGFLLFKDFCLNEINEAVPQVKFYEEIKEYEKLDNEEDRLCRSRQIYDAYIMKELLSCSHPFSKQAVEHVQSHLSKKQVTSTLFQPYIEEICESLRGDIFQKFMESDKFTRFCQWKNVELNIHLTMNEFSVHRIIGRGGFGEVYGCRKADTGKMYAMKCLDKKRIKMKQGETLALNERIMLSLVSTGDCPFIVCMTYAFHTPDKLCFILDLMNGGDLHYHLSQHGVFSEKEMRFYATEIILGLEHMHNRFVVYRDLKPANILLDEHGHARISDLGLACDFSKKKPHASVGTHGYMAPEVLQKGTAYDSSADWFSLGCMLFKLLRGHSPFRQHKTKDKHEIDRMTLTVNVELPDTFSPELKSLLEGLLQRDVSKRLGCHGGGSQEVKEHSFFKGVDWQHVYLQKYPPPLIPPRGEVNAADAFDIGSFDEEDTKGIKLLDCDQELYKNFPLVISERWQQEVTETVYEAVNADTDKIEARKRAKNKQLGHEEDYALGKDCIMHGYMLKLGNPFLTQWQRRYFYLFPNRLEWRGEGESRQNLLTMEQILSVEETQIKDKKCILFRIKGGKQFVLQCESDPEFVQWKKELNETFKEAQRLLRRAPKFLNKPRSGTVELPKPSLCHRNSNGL
Sequence of Cyclin-dependent kinase 3 (Homo sapiens) (Q00526 whole entry, looked up): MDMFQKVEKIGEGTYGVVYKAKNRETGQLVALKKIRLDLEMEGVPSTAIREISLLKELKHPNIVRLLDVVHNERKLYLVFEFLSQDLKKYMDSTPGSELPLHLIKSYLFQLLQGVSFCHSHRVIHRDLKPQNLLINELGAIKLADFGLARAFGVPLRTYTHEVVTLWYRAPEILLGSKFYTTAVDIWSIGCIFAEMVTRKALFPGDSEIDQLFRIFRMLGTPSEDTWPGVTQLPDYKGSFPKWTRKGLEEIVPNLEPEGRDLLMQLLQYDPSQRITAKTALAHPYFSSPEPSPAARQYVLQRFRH
Sequence of Serine/threonine-protein kinase MRCK gamma (Homo sapiens) (Q6DT37 whole entry, the tested form may be a part): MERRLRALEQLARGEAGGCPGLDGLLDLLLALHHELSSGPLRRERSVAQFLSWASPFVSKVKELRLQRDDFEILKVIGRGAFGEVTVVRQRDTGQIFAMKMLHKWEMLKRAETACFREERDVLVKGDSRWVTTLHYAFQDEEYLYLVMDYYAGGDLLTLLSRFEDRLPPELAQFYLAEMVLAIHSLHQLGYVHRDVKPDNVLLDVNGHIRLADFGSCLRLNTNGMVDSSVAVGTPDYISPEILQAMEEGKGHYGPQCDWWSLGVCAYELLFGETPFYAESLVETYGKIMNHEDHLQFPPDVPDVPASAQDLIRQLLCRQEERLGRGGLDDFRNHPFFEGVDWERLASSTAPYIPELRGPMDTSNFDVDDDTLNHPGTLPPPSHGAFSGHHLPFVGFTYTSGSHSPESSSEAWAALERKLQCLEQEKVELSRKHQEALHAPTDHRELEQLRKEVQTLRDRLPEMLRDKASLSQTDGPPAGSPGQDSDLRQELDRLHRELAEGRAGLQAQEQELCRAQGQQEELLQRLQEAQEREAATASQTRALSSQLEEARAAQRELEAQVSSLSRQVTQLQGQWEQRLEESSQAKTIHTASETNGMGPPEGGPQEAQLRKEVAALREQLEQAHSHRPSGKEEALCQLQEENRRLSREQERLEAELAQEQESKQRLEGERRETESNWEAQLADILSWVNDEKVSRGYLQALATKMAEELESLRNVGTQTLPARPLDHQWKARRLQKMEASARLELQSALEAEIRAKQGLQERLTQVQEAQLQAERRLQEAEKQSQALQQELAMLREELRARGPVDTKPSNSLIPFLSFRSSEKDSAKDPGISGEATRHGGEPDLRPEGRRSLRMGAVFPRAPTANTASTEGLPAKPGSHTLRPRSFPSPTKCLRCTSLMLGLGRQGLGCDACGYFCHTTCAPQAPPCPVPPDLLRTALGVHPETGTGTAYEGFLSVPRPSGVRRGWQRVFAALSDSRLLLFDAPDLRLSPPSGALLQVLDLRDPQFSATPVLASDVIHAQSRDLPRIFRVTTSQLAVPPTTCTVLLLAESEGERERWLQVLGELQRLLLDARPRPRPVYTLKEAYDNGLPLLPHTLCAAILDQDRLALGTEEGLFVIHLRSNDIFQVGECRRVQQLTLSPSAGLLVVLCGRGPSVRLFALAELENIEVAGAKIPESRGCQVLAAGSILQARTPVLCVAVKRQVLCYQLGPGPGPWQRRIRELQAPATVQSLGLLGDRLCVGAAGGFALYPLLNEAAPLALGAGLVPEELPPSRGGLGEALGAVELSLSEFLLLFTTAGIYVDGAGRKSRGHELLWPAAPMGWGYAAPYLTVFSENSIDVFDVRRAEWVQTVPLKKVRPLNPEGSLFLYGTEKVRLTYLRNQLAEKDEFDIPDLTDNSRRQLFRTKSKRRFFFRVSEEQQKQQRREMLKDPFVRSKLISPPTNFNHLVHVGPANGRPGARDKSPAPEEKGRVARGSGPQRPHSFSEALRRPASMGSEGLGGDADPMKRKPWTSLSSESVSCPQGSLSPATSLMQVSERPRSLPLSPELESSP
Sequence of ALK tyrosine kinase receptor (Homo sapiens), Q9UM73 [L1196M] (Q9UM73 whole entry L1196M, looked up): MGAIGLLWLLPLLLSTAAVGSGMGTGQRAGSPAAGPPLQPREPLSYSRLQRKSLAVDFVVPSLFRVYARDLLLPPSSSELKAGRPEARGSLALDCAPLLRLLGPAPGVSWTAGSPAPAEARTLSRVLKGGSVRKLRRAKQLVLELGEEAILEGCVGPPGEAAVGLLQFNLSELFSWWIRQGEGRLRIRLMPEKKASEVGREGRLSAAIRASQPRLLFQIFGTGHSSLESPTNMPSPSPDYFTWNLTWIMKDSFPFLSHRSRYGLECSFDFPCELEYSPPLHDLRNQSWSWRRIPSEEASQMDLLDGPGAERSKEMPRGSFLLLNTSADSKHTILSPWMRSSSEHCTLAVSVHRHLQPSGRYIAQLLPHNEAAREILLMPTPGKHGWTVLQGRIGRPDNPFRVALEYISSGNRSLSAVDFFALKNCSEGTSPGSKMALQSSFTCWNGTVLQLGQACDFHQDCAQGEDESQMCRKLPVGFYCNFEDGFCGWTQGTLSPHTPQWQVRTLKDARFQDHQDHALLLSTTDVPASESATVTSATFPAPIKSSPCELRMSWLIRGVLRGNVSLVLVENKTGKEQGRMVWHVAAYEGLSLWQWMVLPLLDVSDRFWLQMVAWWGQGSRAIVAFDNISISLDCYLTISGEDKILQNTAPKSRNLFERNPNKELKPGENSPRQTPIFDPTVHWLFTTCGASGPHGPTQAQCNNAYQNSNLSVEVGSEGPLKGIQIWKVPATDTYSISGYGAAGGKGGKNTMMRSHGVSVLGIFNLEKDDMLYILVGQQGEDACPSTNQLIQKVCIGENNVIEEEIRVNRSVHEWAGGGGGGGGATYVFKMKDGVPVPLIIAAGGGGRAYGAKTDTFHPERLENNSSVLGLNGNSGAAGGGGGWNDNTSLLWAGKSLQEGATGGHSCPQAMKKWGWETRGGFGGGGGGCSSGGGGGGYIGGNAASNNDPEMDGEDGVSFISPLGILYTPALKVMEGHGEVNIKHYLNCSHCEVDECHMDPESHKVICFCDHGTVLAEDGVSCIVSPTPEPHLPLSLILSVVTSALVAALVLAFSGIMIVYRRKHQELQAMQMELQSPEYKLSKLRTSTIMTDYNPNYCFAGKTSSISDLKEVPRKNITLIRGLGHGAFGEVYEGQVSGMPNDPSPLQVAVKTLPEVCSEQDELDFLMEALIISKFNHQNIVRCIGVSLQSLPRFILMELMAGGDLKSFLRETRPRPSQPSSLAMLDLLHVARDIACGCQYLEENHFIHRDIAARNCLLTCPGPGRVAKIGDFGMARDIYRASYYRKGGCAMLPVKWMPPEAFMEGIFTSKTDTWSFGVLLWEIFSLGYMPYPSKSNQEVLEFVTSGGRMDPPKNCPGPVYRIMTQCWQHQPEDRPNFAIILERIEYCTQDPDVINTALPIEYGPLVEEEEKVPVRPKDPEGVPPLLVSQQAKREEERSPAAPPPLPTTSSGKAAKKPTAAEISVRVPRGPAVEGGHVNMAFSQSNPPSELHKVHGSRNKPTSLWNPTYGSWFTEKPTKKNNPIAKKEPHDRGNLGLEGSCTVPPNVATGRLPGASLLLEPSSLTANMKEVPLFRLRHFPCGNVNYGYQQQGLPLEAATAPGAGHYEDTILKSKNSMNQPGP

CO[C@@H](C)c1c(Nc2ccc([C@@H](N(C)C(=O)C3CCS(=O)(=O)CC3)C(F)(F)F)cc2)cnc2cc(Cl)nn12 [NVS-MALT1-C]
inactive: residual activity [1] 100% | residual activity [2] 94% | residual activity [3] 99% | residual activity [4] 91% | residual activity [5] 94% | residual activity [6] 81% | residual activity [7] 100% | residual activity [8] 100% | residual activity [9] 100% | residual activity [10] 89% | residual activity [11] 86% | residual activity [12] 87% | residual activity [13] 84% | residual activity [14] 91% | residual activity [15] 100% | residual activity [16] 100% | residual activity [17] 100% | residual activity [18] 100% | residual activity [19] 84% | residual activity [20] 89% | residual activity [21] 100% | residual activity [22] 100% | residual activity [23] 94% | residual activity [24] 100% | residual activity [25] 89% | residual activity [26] 90% | residual activity [27] 100% | residual activity [28] 81% | residual activity [29] 100% | residual activity [31] 87% | residual activity [32] 88% | residual activity [33] 90% | residual activity [34] 96% | residual activity [35] 63% | residual activity [36] 76% | residual activity [37] 100% | residual activity [38] 100% | residual activity [39] 73% | inhibition [40] 5.46% | residual activity [41] 100% | residual activity [42] 100% | residual activity [43] 78% | residual activity [44] 100% | residual activity [45] 98%
active: inhibition [30] 56.8%

CO[C@@H](C)c1c(Nc2ccc([C@H](N(C)C(=O)C3CCS(=O)(=O)CC3)C(F)(F)F)cc2)cnc2cc(Cl)nn12 [NVS-MALT1]
inactive: residual activity [1] 100% | residual activity [2] 88% | residual activity [3] 100% | residual activity [4] 100% | residual activity [5] 91% | residual activity [6] 84% | residual activity [7] 100% | residual activity [8] 100% | residual activity [9] 100% | residual activity [10] 83% | residual activity [11] 87% | residual activity [12] 91% | residual activity [13] 85% | residual activity [14] 74% | residual activity [15] 100% | residual activity [16] 100% | residual activity [17] 100% | residual activity [18] 94% | residual activity [19] 91% | residual activity [20] 81% | residual activity [21] 100% | residual activity [22] 100% | residual activity [23] 100% | residual activity [24] 100% | residual activity [25] 76% | residual activity [26] 79% | residual activity [27] 100% | residual activity [28] 69% | residual activity [29] 100% | inhibition [30] 18.8% | residual activity [31] 99% | residual activity [32] 90% | residual activity [33] 80% | residual activity [34] 70% | residual activity [35] 75% | residual activity [36] 72% | residual activity [37] 82% | residual activity [38] 100% | residual activity [39] 73% | inhibition [40] -9.88% | residual activity [41] 100% | residual activity [42] 100% | residual activity [43] 100% | residual activity [44] 80% | residual activity [45] 100%
